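1) Cells in 96-well plates. 2) Compound, 48 h, 5 concentrations. 3) Linear interpolation between surrounding doses. 4) Unreached endpoint = highest concentration. GI50 = concentration required for 50% inhibition of growth. Definition used: TGI = concentration required for complete inhibition of growth.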
Assays:
Assay in all cases: NCI-60 cell line screen, 48 h
TK-10 renal = test system: TK-10 renal
A549 NSCLC = test system: A549 NSCLC
BT-549 breast = test system: BT-549 breast
RPMI-8226 leukemia = test system: RPMI-8226 leukemia
NCI-H522 lung = test system: NCI-H522 lung
MALME-3M melanoma = test system: MALME-3M melanoma
OVCAR-4 ovarian = test system: OVCAR-4 ovarian
HCC-2998 colon = test system: HCC-2998 colon
SF-268 CNS = test system: SF-268 CNS
SK-MEL-2 melanoma = test system: SK-MEL-2 melanoma
NCI-H23 lung = test system: NCI-H23 lung
MCF7 breast = test system: MCF7 breast
M14 melanoma = test system: M14 melanoma
PC-3 prostate = test system: PC-3 prostate
ACHN renal = test system: ACHN renal
OVCAR-5 ovarian = test system: OVCAR-5 ovarian
HT29 colon = test system: HT29 colon
HCT-15 colon = test system: HCT-15 colon
SK-OV-3 ovarian = test system: SK-OV-3 ovarian
CCRF-CEM leukemia = test system: CCRF-CEM leukemia
SW-620 colon = test system: SW-620 colon
SN12C renal = test system: SN12C renal
SF-295 CNS = test system: SF-295 CNS
KM12 colon = test system: KM12 colon
SF-539 CNS = test system: SF-539 CNS
HS 578T breast = test system: HS 578T breast
SNB-19 CNS = test system: SNB-19 CNS
IGROV1 ovarian = test system: IGROV1 ovarian
SK-MEL-5 melanoma = test system: SK-MEL-5 melanoma
COLO 205 colon = test system: COLO 205 colon
EKVX NSCLC = test system: EKVX NSCLC
SNB-75 CNS = test system: SNB-75 CNS
MDA-MB-231 breast = test system: MDA-MB-231 breast
OVCAR-3 ovarian = test system: OVCAR-3 ovarian
MDA-MB-435 = test system: MDA-MB-435
NCI-H460 lung = test system: NCI-H460 lung
HOP-62 NSCLC = test system: HOP-62 NSCLC
UACC-257 melanoma = test system: UACC-257 melanoma
RXF 393 renal = test system: RXF 393 renal
MOLT-4 leukemia = test system: MOLT-4 leukemia
OVCAR-8 ovarian = test system: OVCAR-8 ovarian
UACC-62 melanoma = test system: UACC-62 melanoma
SK-MEL-28 melanoma = test system: SK-MEL-28 melanoma
CAKI-1 renal = test system: CAKI-1 renal
786-0 renal = test system: 786-0 renal
NCI/ADR-RES ovarian = test system: NCI/ADR-RES ovarian
SR leukemia = test system: SR leukemia
UO-31 renal = test system: UO-31 renal
NCI-H226 lung = test system: NCI-H226 lung
U251 CNS = test system: U251 CNS
K-562 leukemia = test system: K-562 leukemia
LOX IMVI melanoma = test system: LOX IMVI melanoma
DU-145 prostate = test system: DU-145 prostate

CC(C)=CC1=C2C3=C(C(=O)C4(O)Oc5c(C)c6c7c(c5OC24C)[C@@H](C)CC[C@@H]7[C@@H](C)C[C@H]6C=C(C)C)C(C)CCC3C(C)C1 (stereo partly specified)
GI50 (TK-10 renal): > 100 µM
TGI (TK-10 renal): > 100 µM
GI50 (A549 NSCLC): > 100 µM
TGI (A549 NSCLC): > 100 µM
GI50 (BT-549 breast): > 100 µM
TGI (BT-549 breast): > 100 µM
GI50 (RPMI-8226 leukemia): > 100 µM
TGI (RPMI-8226 leukemia): > 100 µM
GI50 (NCI-H522 lung): > 100 µM
TGI (NCI-H522 lung): > 100 µM
GI50 (MALME-3M melanoma): > 100 µM
TGI (MALME-3M melanoma): > 100 µM
GI50 (OVCAR-4 ovarian): > 100 µM
TGI (OVCAR-4 ovarian): > 100 µM
GI50 (HCC-2998 colon): > 100 µM
TGI (HCC-2998 colon): > 100 µM
GI50 (SF-268 CNS): > 100 µM
TGI (SF-268 CNS): > 100 µM
GI50 (SK-MEL-2 melanoma): > 100 µM
TGI (SK-MEL-2 melanoma): > 100 µM
GI50 (NCI-H23 lung): > 100 µM
TGI (NCI-H23 lung): > 100 µM
GI50 (MCF7 breast): > 100 µM
TGI (MCF7 breast): > 100 µM
GI50 (M14 melanoma): > 100 µM
TGI (M14 melanoma): > 100 µM
GI50 (PC-3 prostate): > 100 µM
TGI (PC-3 prostate): > 100 µM
GI50 (ACHN renal): > 100 µM
TGI (ACHN renal): > 100 µM
GI50 (OVCAR-5 ovarian): > 100 µM
TGI (OVCAR-5 ovarian): > 100 µM
GI50 (HT29 colon): > 100 µM
TGI (HT29 colon): > 100 µM
GI50 (HCT-15 colon): > 100 µM
TGI (HCT-15 colon): > 100 µM
GI50 (SK-OV-3 ovarian): > 100 µM
TGI (SK-OV-3 ovarian): > 100 µM
GI50 (CCRF-CEM leukemia): > 100 µM
TGI (CCRF-CEM leukemia): > 100 µM
GI50 (SW-620 colon): > 100 µM
TGI (SW-620 colon): > 100 µM
GI50 (SN12C renal): > 100 µM
TGI (SN12C renal): > 100 µM
GI50 (SF-295 CNS): > 100 µM
TGI (SF-295 CNS): > 100 µM
GI50 (KM12 colon): > 100 µM
TGI (KM12 colon): > 100 µM
GI50 (SF-539 CNS): > 100 µM
TGI (SF-539 CNS): > 100 µM
GI50 (HS 578T breast): > 100 µM
TGI (HS 578T breast): > 100 µM
GI50 (SNB-19 CNS): > 100 µM
TGI (SNB-19 CNS): > 100 µM
GI50 (IGROV1 ovarian): > 100 µM
TGI (IGROV1 ovarian): > 100 µM
GI50 (SK-MEL-5 melanoma): > 100 µM
TGI (SK-MEL-5 melanoma): > 100 µM
GI50 (COLO 205 colon): > 100 µM
TGI (COLO 205 colon): > 100 µM
GI50 (EKVX NSCLC): > 100 µM
TGI (EKVX NSCLC): > 100 µM
GI50 (SNB-75 CNS): > 100 µM
TGI (SNB-75 CNS): > 100 µM
GI50 (MDA-MB-231 breast): > 100 µM
TGI (MDA-MB-231 breast): > 100 µM
GI50 (OVCAR-3 ovarian): > 100 µM
TGI (OVCAR-3 ovarian): > 100 µM
GI50 (MDA-MB-435): > 100 µM
TGI (MDA-MB-435): > 100 µM
GI50 (NCI-H460 lung): > 100 µM
TGI (NCI-H460 lung): > 100 µM
GI50 (HOP-62 NSCLC): > 100 µM
TGI (HOP-62 NSCLC): > 100 µM
GI50 (UACC-257 melanoma): > 100 µM
TGI (UACC-257 melanoma): > 100 µM
GI50 (RXF 393 renal): > 100 µM
TGI (RXF 393 renal): > 100 µM
GI50 (MOLT-4 leukemia): > 100 µM
TGI (MOLT-4 leukemia): > 100 µM
GI50 (OVCAR-8 ovarian): > 100 µM
TGI (OVCAR-8 ovarian): > 100 µM
GI50 (UACC-62 melanoma): > 100 µM
TGI (UACC-62 melanoma): > 100 µM
GI50 (SK-MEL-28 melanoma): 8.82 µM
TGI (SK-MEL-28 melanoma): > 100 µM
GI50 (CAKI-1 renal): > 100 µM
TGI (CAKI-1 renal): > 100 µM
GI50 (786-0 renal): > 100 µM
TGI (786-0 renal): > 100 µM
GI50 (NCI/ADR-RES ovarian): > 100 µM
TGI (NCI/ADR-RES ovarian): > 100 µM
GI50 (SR leukemia): > 100 µM
TGI (SR leukemia): > 100 µM
GI50 (UO-31 renal): > 100 µM
TGI (UO-31 renal): > 100 µM
GI50 (NCI-H226 lung): > 100 µM
TGI (NCI-H226 lung): > 100 µM
GI50 (U251 CNS): > 100 µM
TGI (U251 CNS): > 100 µM
GI50 (K-562 leukemia): > 100 µM
TGI (K-562 leukemia): > 100 µM
GI50 (LOX IMVI melanoma): > 100 µM
TGI (LOX IMVI melanoma): > 100 µM
GI50 (DU-145 prostate): > 100 µM
TGI (DU-145 prostate): > 100 µM

From PubChem BioAssay (NCI)
